Experimental findings from patent US10940139B2, “Compounds that interact with the Ras superfamily for the treatment of cancers, inflammatory diseases, rasopathies, and fibrotic disease” (Shy Therapeutics LLC, priority 2017, dated 2021) are described below.

What is called IC50 is the concentration that inhibits the measured activity by half. Higher therefore signals weaker potency in that assay. Usually inhibition stands for the change of the read-out against control, counted positive when it falls. Higher therefore signals a response far below the control.

Structures are written as SMILES.

One experiment relates to MIA-PACA2 pancreatic cancer cell lines. Briefly: Cell proliferation assay (CellTiter 96 AQueous One). The following applies: Homo sapiens, MIA PaCa-2; MIA-PACA2, same assay as the % inhibition (standard conditions). The class given is cell-based. The procedure:
Cell lines: Tumor-derived pancreatic cancer cell lines MIA-PACA2 were purchased from ATCC and grown in complete DMEM-High Glucose medium supplemented with penicillin (100 U/mL), streptomycin (100 μg/mL), and 10% heat-inactivated FBS at 37° C. in a humidified incubator with 5% CO2.
Method: Cells are plated at 1000 cells/well density in 96-wells plate, starved ON, and the next day tested small molecules are added to the cells in the final concentration of 30 μM with 0.3% DMSO 3 hours prior to 10% FBS addition. After serum addition cells are incubated for 6 days at 37° C. in a humidified incubator with 5% CO2. For IC50 value determination, serial dilutions of compounds were added to cells under the same conditions.
Assay: At the end of the incubation period, cell cultures are tested using the CellTiter 96® AQueous One Solution Cell Proliferation Assay kit (Promega Corporation, Madison, Wis.) according to the manufacturer specifications. Briefly, assay is performed by adding 20 μl of the CellTiter 96 Aqueous One Solution Reagent directly to culture wells, followed by for 1-4 hours incubation at 37° C. in a humidified incubator with 5% CO2. At the end of incubation time, absorbance at 492 nm is recorded with the 96-well plate reader Eppendorf AF2200, and degree of small molecule-dependent proliferation inhibition is calculated from raw data assuming No Serum cells value as 100%.
Compound `COc1ccnc(-c2nc(O)c3ccsc3n2)c1` [drawing 1631] displayed an IC50 of 100 to 500 nM.

Still in this experiment, the particulars now being: Homo sapiens, MIA PaCa-2; at 30 μM, MIA-PACA2.
On to `O=C(c1ccc(=O)[nH]n1)N1CCCc2c(O)nc(-c3ccccn3)nc21` [drawing 1548], for which the inhibition at 30 µM lay within 76 to 100%.

In turn, `Oc1nc(-c2ccccn2)nc2c(-c3ccc(OC4CCOCC4)cc3)csc12` [drawing 1743] yielded an inhibition at 30 µM of 76 to 100%.

`NC(=O)C1(CNc2nc(-c3ccccn3)nc3c2CCC3)CCCC1` [drawing 1514]: the inhibition at 30 µM is 76 to 100%.

The compound `COc1cccc(CC2CN(C(=O)c3csc4c(O)nc(-c5ccccn5)nc34)CCN2)c1` (stereo not shown) [drawing 1706] came in with an inhibition at 30 µM of 1 to 25%.

As to `Cn1cc(C2CN(C(=O)c3csc4c(O)nc(-c5ccccn5)nc34)CCN2)cn1` (stereo not shown) [drawing 1670], the inhibition at 30 µM lay in the range of 1 to 25%.

As to `Oc1nc(-c2ccccn2)nc2c(-c3ccnn3-c3ccccn3)csc12` [drawing 1780], the inhibition at 30 µM is 76 to 100%.

As for `O=C(Nc1nc(-c2ccccn2)cs1)c1cccnc1` [drawing 1483], the inhibition at 30 µM was in the range of 76 to 100%.

In turn, `OCC1(c2ccc(-c3csc4c(O)nc(-c5ccccn5)nc34)cc2)CC1` [drawing 1762] gave an inhibition at 30 µM of 76 to 100%.

`O=C(c1csc2c(O)nc(-c3ccccn3)nc12)N1CCN(c2ccc(O)c(Cl)c2)CC1` [drawing 1696] gave an inhibition at 30 µM of 76 to 100%.

In turn, `O=C(Nc1nnc(-c2ccccn2)[nH]1)C1=NOC(c2ccccc2)C1` (stereo not shown) [drawing 1455] returned an inhibition at 30 µM of 25 to 50%.

In turn, `N#Cc1ccc(COCC(=O)Nc2ccnc(-c3ccccn3)n2)cc1` [drawing 1689] returned an inhibition at 30 µM of 76 to 100%.

The compound `CC(=O)C1CCN(c2nc(-c3ccccn3)nc3scc(-c4ccccc4)c23)CC1` yielded an inhibition at 30 µM of 76 to 100%.

Take `Oc1nc(-c2ccccn2)nc2c(-c3ccc(F)cc3F)csc12` [drawing 1747]: the inhibition at 30 µM is 76 to 100%.

The compound `O=C(Nc1nnc(-c2ccccn2)[nH]1)c1ccn(-c2cccc(F)c2)n1` [drawing 1397] showed an inhibition at 30 µM of 76 to 100%.

Consider `O=C(c1csc2c(O)nc(-c3ccccn3)nc12)N1CCN(c2cccc(F)c2)CC1` [drawing 1647], for which the inhibition at 30 µM was 76 to 100%.

With `CC(Oc1ccc(C#N)cc1)C(=O)Nc1nnc(-c2ccccn2)[nH]1` (stereo not shown) [drawing 1437], the inhibition at 30 µM lay in the range of 76 to 100%.

In the case of `CC(C)(O)c1ccc(-c2csc3c(O)nc(-c4ccccn4)nc23)c(F)c1` [drawing 1756], the inhibition at 30 µM is 76 to 100%.

On to `CCC(C)(C)c1ccc(OCCCC(=O)NC(C(=O)OC)C(C)C)c(C(C)(C)CC)c1` (stereo not shown) [drawing 1524], for which the inhibition at 30 µM fell in the range of 76 to 100%.

Regarding `O=C(Cn1c(=O)cnc2ccccc21)Nc1nc(-c2ccccn2)cs1` [drawing 1476], the inhibition at 30 µM was in the range of 76 to 100%.

For the compound `Cc1sc2c(O)nc(-c3ccccn3)nc2c1-c1cccnc1` [drawing 1790], the inhibition at 30 µM lay in the range of 76 to 100%.

In turn, `COC(=O)c1cccc(CN2CCC(CSc3ccccc3)C2)c1C#N` (stereo not shown) [drawing 1517] yielded an inhibition at 30 µM of 76 to 100%.

For `CC(C)(C)c1noc(CCC(=O)Nc2nnc(-c3ccccn3)[nH]2)n1` [drawing 1412], the inhibition at 30 µM lay in the range of 25 to 50%.

As for `O=C(Nc1nnc(-c2ccccn2)[nH]1)c1ccc(=O)n(CCOc2ccccc2)n1` [drawing 1463], the inhibition at 30 µM is 76 to 100%.

In turn, `COC(=O)C(C)CN(Cc1ccccc1)c1nc(C(F)(F)F)ccc1C#N` (stereo not shown) [drawing 1536] showed an inhibition at 30 µM of 51 to 75%.

The compound `COc1ccnc(-c2nc(O)c3ccsc3n2)c1` [drawing 1631] yielded an inhibition at 30 µM of 76 to 100%.

Take `CCn1nc(C)cc1-c1csc2c(O)nc(-c3ccccn3)nc12` [drawing 1779]: the inhibition at 30 µM lay in the range of 76 to 100%.

`O=C(Nc1nnc(-c2ccccn2)[nH]1)C1CCn2c(cnc2-c2ccccc2)C1` (stereo not shown) [drawing 1389] gave an inhibition at 30 µM of 1 to 25%.

`O=C(Nc1nnc(-c2ccccn2)[nH]1)c1cccc(N2CCCS2(=O)=O)c1` [drawing 1452] displayed an inhibition at 30 µM of 1 to 25%.

`O=C(NCCc1ccnc(O)c1)c1csc2nc(-c3ccccn3)nc(N3CCOCC3)c12` [drawing 1676] came in with an inhibition at 30 µM of 51 to 75%.

As for `Nc1nc(O)c2scc(-c3ccccc3)c2n1` [drawing 1580], the inhibition at 30 µM fell in the range of 25 to 50%.
